Key:
[1] = tested on: Peripheral Sensory Neuropathy Induced by Vincristine in Mice; assay: cold plate test, vincristine-induced peripheral sensory neuropathy; assay type: in vivo; details: duloxetine 30 mg/kg daily
Protocol: The effect of the Lentinus edodes mycelium extract on the paresthesia to cold stimulation was tested by performing the cold plate test. The mice in the three groups in the above (1) were put on a cold plate set to 10° C. and a response time for avoidance (a latency) was measured. The shorter latency means that the mouse avoids the cold stimulation of the cold plate more.
In the present test, the mice were divided into three groups by a difference in test objects. As in Example 1, male Balb/c mice of 6 to 7 weeks old were used. The mice were divided into a total of three groups, a control group, a vincristine
administration group, and a vincristine and Lentinus edodes mycelium extract administration group (vincristine+Lentinus edodes mycelium extract administration group).
Vincristine was administered to each mouse once a day at a dose of 0.2 mg/kg. Further, the Lentinus edodes mycelium extract was administered to each mouse once a day at a dose of 2 g/kg.
Evaluation was performed in the same manner as in the test with oxaliplatin in Example 1. Referring to FIG. 6, the horizontal axis indicates the elapsed time after administration (days) and the vertical axis indicates the avoidance response time (seconds). Open circles with a solid line represent the control group. Filled circles with a solid line represent the group in which only vincristine was administered. Open squares with a dash line represent the group in which vincristine and the Lentinus edodes mycelium extract were administered at the same time (vincristine+Lentinus edodes mycelium extract administration group). When the difference with the control group was determined to be significant using a significance level of 5%, the data were marked by “*”.
(§1) In the present test, the mice were divided into six groups by a difference in test objects. As in Example 1, male Balb/c mice of 6 to 7 weeks old were used. […]

[2] = tested on: Peripheral Sensory Neuropathy Induced by Paclitaxel in Mice; assay: von Frey test, paclitaxel-induced peripheral sensory neuropathy; assay type: in vivo; details: duloxetine 30 mg/kg daily
Text: The mice in the three groups in the above (1) were put in a cage and a filament having a strength of 0.16 g was pressed on the plantar surface of the leg to measure the number of times (a score) of avoidance response.
Male Balb/c mice of 6 to 7 weeks old were used as in Example 1. The mice were divided into three groups: a control group, a paclitaxel administration group, and a paclitaxel and Lentinus edodes mycelium extract administration group (paclitaxel+Lentinus edodes mycelium extract administration group). Paclitaxel was administered to each mouse once a day at a dose of 6 mg/kg. Further, the Lentinus edodes mycelium extract was administered to each mouse once a day at a dose of 2 g/kg.
Further, the number of times of administration was set to once a week (on Day 0, Day 7, and Day 14) for paclitaxel and daily (from Day 0 to Day 15) for the Lentinus edodes mycelium extract in both the von Frey test and the cold plate test below.
Evaluation was performed in the same manner as in the test with oxaliplatin. Referring to FIG. 3, the horizontal axis indicates an elapsed time after administration (days) and the vertical axis indicates the avoidance response (scores). Open circles with a solid line represent the control group. Filled circles with a solid line represent the group in which only paclitaxel was administered. Open squares with a dash line represent the group in which paclitaxel and the Lentinus edodes mycelium extract were administered (paclitaxel+Lentinus edodes mycelium extract administration group). When the difference with the control group was determined to be significant using a significance level of 5%, the data were marked by “*”.
as §1

## CNCC[C@H](Oc1cccc2ccccc12)c1cccs1 [duloxetine]
[1]; 3-day delayed after vincristine
  latency compared with vincristine administration group, cold plate test: almost the same as that in the vincristine administration group
[1]; 6-day delayed after vincristine
  latency, cold plate test: same tendency as that in the duloxetine 3-day delayed administration group
[2]; 3-day delayed after paclitaxel
  avoidance score compared with paclitaxel administration group, von Frey test: almost the same avoidance score as that in the paclitaxel administration group
[2]; 6-day delayed after paclitaxel
  avoidance score, von Frey test: same tendency as that in the duloxetine 3-day delayed administration group
